Source: ChEMBL document CHEMBL2434900, “Synthesis of novel benzo[4,5]thiazolo[1,2-a]pyrimidine-3-carboxylate derivatives and biological evaluation as potential anticancer agents” (Eur J Med Chem, 2013)

Assays:
Assay type in all cases: functional, cell-based
[1] = test system: MCF7; test: Cytotoxicity against human MCF7 cells by MTT assay
[2] = test system: MDA-MB-231; test: Cytotoxicity against human MDA-MB-231 cells by MTT assay
[3] = test system: HeLa; test: Cytotoxicity against human HeLa cells by MTT assay
[4] = test system: A549; test: Cytotoxicity against human A549 cells by MTT assay

CC1=C(C(=O)N2CCCCC2)C(c2ccccc2)N2C(=N1)Sc1ccccc12 (centres undefined)
IC50 [1]: 11.7 µM
IC50 [2]: 5.01 µM

CC1=C(C(=O)N2CCOCC2)C(c2ccccc2)N2C(=N1)Sc1ccccc12 (centres undefined)
IC50 [1]: 10.1 µM
IC50 [2]: 11.1 µM

CC1=C(C(=O)N2CCN(c3ccccc3)CC2)C(c2ccccc2)N2C(=N1)Sc1ccccc12 (centres undefined)
IC50 [1]: 77.6 µM
IC50 [2]: 31.6 µM

CC1=C(C(=O)N2CCN(C)CC2)C(c2ccccc2)N2C(=N1)Sc1ccccc12 (centres undefined)
IC50 [1]: 0.58 µM
IC50 [2]: 1.58 µM

CC1=C(C(=O)N2CCN(c3ccc([N+](=O)[O-])cc3)CC2)C(c2ccccc2)N2C(=N1)Sc1ccccc12 (centres undefined)
IC50 [1]: 29 µM
IC50 [2]: 47.2 µM

CC1=C(C(=O)NCCC(=O)N2CCN(c3ccc([N+](=O)[O-])cc3)CC2)C(c2ccccc2)N2C(=N1)Sc1ccccc12 (centres undefined)
IC50 [1]: 13.8 µM
IC50 [3]: 25.7 µM
IC50 [4]: 11.2 µM

CC1=C(C(=O)NCCC(=O)N2CCCCC2)C(c2ccccc2)N2C(=N1)Sc1ccccc12 (centres undefined)
IC50 [1]: 16.8 µM
IC50 [3]: 11.4 µM
IC50 [2]: 21.7 µM
IC50 [4]: 18.1 µM

COc1cccc2c1C(=O)c1c(O)c3c(c(O)c1C2=O)C[C@@](O)(C(=O)CO)C[C@@H]3O[C@H]1C[C@H](N)[C@H](O)[C@H](C)O1 [DOXORUBICIN]
IC50 [1]: 1.05 µM
IC50 [2]: 0.501 µM
